Measured values published in patent publication US20220175777A1, “Inhibitors of Multidrug Resistance Transporter P-Glycoprotein” (Southern Methodist University, priority 2014, published 2022).

Legend:
DU145TXR = assay: Resensitization of DU145TXR to paclitaxel by 29 variants (MTT cell viability); assay type: cell-based, human; settings: for Fold vs PTX ÷ 29: compared to parental compound 29; for Fold vs PTX: vs PTX alone
Excerpt: The Group 1 ChemGen/docking routine produced variants of P-gp inhibitor 29 resensitize a multidrug resistant, P-gp overexpressing prostate cancer cell line to paclitaxel. The mitochondrial reduction potential of cells is often used as an indicator for cell viability using MTT assays^40-42. Using these assays it was observed that the five Group 1 derivatives of 29 predicted through the ChemGen/docking routine and synthesized here, 216, 227, 231, 541 and 551, re-sensitized the P-gp overexpressing prostate cancer cell line, DU145TXR^33, to the chemotherapeutic, paclitaxel (FIG. 9, showing results of assays at concentrations of 3 μM, 5 μM, 7 μM, and 10 μM).
Cytotoxicity of the chemotherapeutic, paclitaxel (PTX) to P-gp overexpressing prostate cancer cells, DU145TXR, was determined in the absence and presence of the ChemGen designed 29-variants, 216, 227, 231, 541 and 551. For each experimental compound IC50 values of PTX alone or in the presence of inhibitors, fold improvement of PTX sensitivity in the presence of inhibitor, and fold improvement of PTX sensitivity by variants compared to parental compound 29 are given.

[1] = target: T1, Cysteineless Mouse MDR3 P-glycoprotein (Mus musculus, UniProt P21447, C1070A/C1121A/C1223A/C133A/C427A/C638A/C669A/C713A/C952A); assay: ATP hydrolysis by purified P-glycoprotein, basal and verapamil-stimulated; assay type: biochemical; settings: for Effect on stimulated ATPase / Stimulated ATPase (% of DMSO): in the presence of verapamil; for Stimulated ATPase (% of DMSO) / Basal ATPase (% of DMSO): ± standard deviation; for Effect on basal ATPase / Basal ATPase (% of DMSO): without added transport substrate
T1 construct: made in house; host or cells: Pichia pastoris
Excerpt: The efficacy of molecules identified using in silico methods to function as potential inhibitors of P-glycoprotein was initially tested with regard to their capability to inhibit ATP hydrolysis by purified P-glycoprotein. For this purpose, a well-established activity assay for ATP hydrolyzing enzymes that uses the oxidation of NADH to NAD+ through coupling the reactions of pyruvate kinase and lactate dehydrogenase to the hydrolysis of ATP was adapted to medium throughput conditions on 96 well plates. […] In this set-up, the effects of potential small molecule inhibitors on the ATP hydrolysis activity of P-glycoprotein were tested in duplicate or triplicate and were repeated at least two times using different enzyme preparations.
The P-glycoprotein used in these assays was a close relative of the human P-glycoprotein that is found in mice. A mutant version of the mouse P-glycoprotein where all intrinsic cysteine amino acids had been replaced by alanine residues was recombinantly expressed in the yeast Pichia pastoris and used for these initial tests. […] Prior to testing the ATP-hydrolysis activity, P-glycoprotein was incubated with phosphatidyl choline for stabilization of the enzyme during the assay.
Different concentrations of the to-be-tested small molecules were added and pre-incubated at 37° C. The ATP hydrolysis reaction was then started by adding equal volume of double concentrated ATPase cocktail. The final ATP concentration in the reaction was 2 mM. The reaction was allowed to proceed for 20 minutes, the rate of ATP hydrolysis was calculated using the molar extinction coefficient of NADH, and the one-to-one relationship of ATP hydrolyzed and NADH oxidized.
Evaluation of mode of inhibition of P-glycoprotein by Group 1 and Group 2 variants of compound 29. To assess the mode of inhibition of P-gp by the novel variants of P-gp inhibitor 29, ATP hydrolysis by P-gp was evaluated in the presence or absence of the variants. […] Murine P-gp (MDR3) expressed in Pichia pastoris that had all naturally occurring cysteines replaced with alanine, was used^45, 46. It is widely assumed that the ATP hydrolytic rate of P-gp is stimulated in the presence of transport substrates when compared to ATP hydrolysis in the absence of transport substrates. Assays comparing these rates can therefore be useful not only in identifying inhibitors of P-gp catalyzed ATP hydrolysis, but also to potentially infer whether a compound might be a transport substrate if basal ATPase rates are stimulated by the addition of a compound.

P-gp = P-gp (Homo sapiens, UniProt P08183); settings: for Transport substrate for P-gp: not told
Procedure: Stimulation of basal ATPase by 29-variants was used as an indicator that a compound may be a P-gp transport substrate. Effects on stimulated P-gp ATPase activity indicated whether a compound directly interfered with ATP usage by the protein (***, p<0.001; **, p<0.01; *, p<0.1; NS, not significant). Quantitative cellular accumulation of 29-variants was performed using LC-MS/MS and is presented as a ratio of the cellular amounts of 29-variants in the presence of P-gp inhibitor, tariquidar, divided by amounts accumulated in its absence. […] Binding of an ATP analog, SL-ATP, to P-gp was used to determine whether ATP binding to P-gp was affected by the 29-variants. Values+/−standard deviations are shown for at least three different P-gp preparations and three independent SL-ATP titration experiments. The values for SL-ATP binding in the presence of 29 were taken directly from Brewer et al. (2014).
Intracellular accumulation of compound 29 variants. Cell accumulation assays for each of the 29 variants were performed as in reference^28 to more directly assess whether the compounds were indeed transport substrates for P-gp.

[2] = target: T1, Cysteineless Mouse MDR3 P-glycoprotein; assay: SL-ATP binding to P-gp by ESR spectroscopy; settings: for Maximum ATP binding mol SL-ANP bound/mol P-gp: SL-ATP titration in presence of compound
Excerpt: Determination of the possible mode of ATP hydrolysis inhibition by the identified P-glycoprotein inhibitors. The mode of hydrolysis of ATP by P-glycoprotein was investigated by measuring the maximal binding stoichiometry and binding affinity of an analog of ATP, SL-ATP, and by Electron Spin Resonance (ESR) spectroscopy, similar to in both the presence and absence of the identified inhibitors.
The high-field signal of the freely mobile, unbound SL-ATP is compared and is used to calculate the amount of ATP-analog bound to P-glycoprotein. Binding of SL-ATP in the absence of any P-glycoprotein inhibitor saturated at about 2 mol of SL-nucleotide bounds per mol of P-glycoprotein.
FIGS. 2A-2D are plots showing the effects of P-glycoprotein ATP hydrolysis inhibitors on nucleotide binding. Between 30 and 50 microM Pgp were incubated with 50 microM inhibitor compound. Increasing amounts of SL-ATP were added. The ESR signal of the free SL-ATP in the presence of P-glycoprotein and inhibitor was compared to that in the absence of P-glycoprotein. The graphs represent at least 3 individual studies each using 3 to 5 different P-glycoprotein preparations.

[3] = target: Normal Human MDR1 P-glycoprotein (Homo sapiens, UniProt P08183); assay: ATP hydrolysis by human P-gp assembled into membrane nanodiscs; assay type: biochemical; settings: human MDR1 P-gp in nanodiscs
Excerpt: To assess whether the observed discrepancies of compounds stimulating basal P-gp ATPase activity but not being transport substrates of the human pump in the cell culture assessments were due to the fact that these biochemical assays used a cysteineless variant of the mouse MDR3 P-glycoprotein, the experiments were repeated using normal human MDR1 P-gp. In order to stabilize the human protein for the activity assays, the protein was assembled into membrane nanodiscs as described herein.

[4] = tested on: P-gp overexpressing DU145TXR cells; assay: Calcein AM accumulation assay; assay type: cell-based, human
Procedure: Accumulation and cellular retention of calcein AM in P-gp overexpressing prostate cancer cells upon incubation with Group 1 SMU-29 variants. Calcein AM accumulation assays have been used by us previously to evaluate P-gp-substrate accumulation in real time in the presence or absence of P-gp inhibitors^28. For these assays, P-gp overexpressing DU145TXR cells were incubated with the respective inhibitors in the presence of the P-gp substrate, calcein AM. Inhibition of P-gp leads to cellular accumulation of calcein AM and to cleavage of its acetoxymethyl ester groups, resulting in the generation of the highly fluorescent compound, calcein. The anionic calcein is not a substrate of P-gp and remains in the cells. In these assays, the relative fluorescence of cellular calcein was measured over time and the results of these assays are shown in FIG. 10A.
The inventors determined if preferential partitioning of variants in the hydrophobic part of the cell membrane may keep them more distant from the putative allosteric site on P-gp which is located adjacent to the membrane in the cytoplasm, therefore potentially slowing the inhibitory effect of the compounds.

Sequence of Normal Human MDR1 P-glycoprotein (P08183 whole entry): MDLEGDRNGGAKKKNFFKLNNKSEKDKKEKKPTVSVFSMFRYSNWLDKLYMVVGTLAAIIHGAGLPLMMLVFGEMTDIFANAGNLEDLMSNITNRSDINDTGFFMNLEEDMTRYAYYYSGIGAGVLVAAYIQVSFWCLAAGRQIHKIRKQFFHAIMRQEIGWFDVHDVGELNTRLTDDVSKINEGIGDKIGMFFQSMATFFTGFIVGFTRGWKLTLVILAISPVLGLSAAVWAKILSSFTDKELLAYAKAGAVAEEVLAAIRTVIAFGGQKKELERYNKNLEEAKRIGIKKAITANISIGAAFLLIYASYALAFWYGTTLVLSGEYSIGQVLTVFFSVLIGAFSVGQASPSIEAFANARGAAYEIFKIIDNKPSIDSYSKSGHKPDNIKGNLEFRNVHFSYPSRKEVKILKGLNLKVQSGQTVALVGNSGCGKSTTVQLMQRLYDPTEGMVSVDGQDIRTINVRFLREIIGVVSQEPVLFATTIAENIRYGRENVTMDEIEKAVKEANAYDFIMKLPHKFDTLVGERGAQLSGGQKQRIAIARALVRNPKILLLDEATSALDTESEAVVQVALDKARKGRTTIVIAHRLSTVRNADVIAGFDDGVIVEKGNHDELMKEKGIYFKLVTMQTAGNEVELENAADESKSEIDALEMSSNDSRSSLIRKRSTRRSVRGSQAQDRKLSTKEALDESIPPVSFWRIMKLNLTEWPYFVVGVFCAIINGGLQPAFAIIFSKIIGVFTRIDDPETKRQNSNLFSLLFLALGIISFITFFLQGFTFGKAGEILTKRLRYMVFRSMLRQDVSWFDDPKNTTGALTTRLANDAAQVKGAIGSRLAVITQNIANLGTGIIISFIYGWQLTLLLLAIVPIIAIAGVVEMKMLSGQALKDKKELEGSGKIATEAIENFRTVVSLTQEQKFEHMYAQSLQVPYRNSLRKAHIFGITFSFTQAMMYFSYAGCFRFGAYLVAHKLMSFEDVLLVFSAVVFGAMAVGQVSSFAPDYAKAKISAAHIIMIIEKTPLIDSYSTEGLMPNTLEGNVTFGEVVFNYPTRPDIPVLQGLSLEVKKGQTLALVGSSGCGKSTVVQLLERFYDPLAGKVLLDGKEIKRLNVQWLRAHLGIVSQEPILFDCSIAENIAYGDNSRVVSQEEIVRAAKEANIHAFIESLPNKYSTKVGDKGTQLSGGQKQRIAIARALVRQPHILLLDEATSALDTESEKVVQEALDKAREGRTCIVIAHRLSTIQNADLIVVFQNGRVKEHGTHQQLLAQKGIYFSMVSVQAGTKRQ
Sequence of P-gp (P08183 whole entry): as above
T1 sequence (P21447 whole entry C133A/C427A/C638A/C669A/C713A/C952A/C1070A/C1121A/C1223A): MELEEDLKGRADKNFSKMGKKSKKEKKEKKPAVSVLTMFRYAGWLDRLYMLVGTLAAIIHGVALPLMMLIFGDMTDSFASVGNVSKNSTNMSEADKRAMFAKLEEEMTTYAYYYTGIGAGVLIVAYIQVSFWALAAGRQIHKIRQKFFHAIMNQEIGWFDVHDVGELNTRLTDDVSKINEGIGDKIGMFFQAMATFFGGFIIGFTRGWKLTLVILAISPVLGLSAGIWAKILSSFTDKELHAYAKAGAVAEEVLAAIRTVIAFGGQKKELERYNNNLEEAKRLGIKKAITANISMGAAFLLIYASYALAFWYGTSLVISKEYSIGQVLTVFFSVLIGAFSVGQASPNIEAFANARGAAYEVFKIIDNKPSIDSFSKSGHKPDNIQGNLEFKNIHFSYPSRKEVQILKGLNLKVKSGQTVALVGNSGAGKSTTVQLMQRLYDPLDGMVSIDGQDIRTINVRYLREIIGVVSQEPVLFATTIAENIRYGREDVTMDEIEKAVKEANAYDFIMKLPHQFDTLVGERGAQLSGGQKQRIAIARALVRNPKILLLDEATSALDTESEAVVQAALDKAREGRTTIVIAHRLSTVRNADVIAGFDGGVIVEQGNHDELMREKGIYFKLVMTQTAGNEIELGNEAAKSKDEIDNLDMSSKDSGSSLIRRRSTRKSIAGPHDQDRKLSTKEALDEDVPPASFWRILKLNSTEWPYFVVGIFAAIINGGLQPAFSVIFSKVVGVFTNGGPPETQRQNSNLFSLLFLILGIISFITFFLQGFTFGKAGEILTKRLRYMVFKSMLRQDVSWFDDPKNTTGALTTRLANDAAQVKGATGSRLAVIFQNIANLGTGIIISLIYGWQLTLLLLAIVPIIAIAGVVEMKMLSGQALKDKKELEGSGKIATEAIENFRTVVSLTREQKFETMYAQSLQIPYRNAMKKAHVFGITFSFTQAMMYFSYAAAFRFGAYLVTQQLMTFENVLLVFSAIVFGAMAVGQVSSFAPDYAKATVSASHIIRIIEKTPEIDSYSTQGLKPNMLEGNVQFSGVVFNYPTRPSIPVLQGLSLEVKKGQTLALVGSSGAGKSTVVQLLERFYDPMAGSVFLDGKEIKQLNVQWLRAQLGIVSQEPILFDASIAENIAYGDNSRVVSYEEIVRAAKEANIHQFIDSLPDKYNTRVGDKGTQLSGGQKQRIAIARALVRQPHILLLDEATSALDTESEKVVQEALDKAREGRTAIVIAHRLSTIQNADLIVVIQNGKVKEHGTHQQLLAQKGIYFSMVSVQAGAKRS

## Cc1cc(C)c(-c2cc(NC(=O)CSCC(=O)c3ccc4c(c3)Cc3ccccc3-4)n(-c3ccccc3)n2)cc1C [SMU29-216]
DU145TXR; 5 μM inhibitor
  Fold vs PTX ÷ 29: 1.3 Fold
  Fold vs PTX: 14 Fold
DU145TXR; 7 μM inhibitor
  Fold vs PTX ÷ 29: 1 Fold
  Fold vs PTX: 34 Fold
DU145TXR; 10 μM inhibitor
  Fold vs PTX ÷ 29: 0.4 Fold
  Fold vs PTX: 37 Fold
[1]
  Effect on stimulated ATPase: none
  Stimulated ATPase (% of DMSO): 108 ± 2 % of DMSO
  Effect on basal ATPase: none
  Basal ATPase (% of DMSO): 105 ± 7 % of DMSO
[1]; listed as 216
  Effect on stimulated ATPase: did not affect
  Effect on basal ATPase: did not significantly affect
P-gp
  Cellular accumulation: ratio of plus Tariquidar over no Tariquidar: 1.1
  Transport substrate for P-gp: no
[2]
  Effect on SL-ANP binding: no
  Maximum ATP binding mol SL-ANP bound/mol P-gp: 1.7 ± 0.1 mol SL-ANP bound/mol P-gp
[3]
  Effect on basal ATPase: inhibitor
  Effect on stimulated ATPase: inhibitor
  Basal ATPase (% of DMSO): 69 ± 8 % of DMSO
  Stimulated ATPase (% of DMSO): 64 ± 6 % of DMSO

## Cc1cc(C)c(-c2cc(NC(=O)CSc3cccc(NC(=O)c4cncc(Br)c4)c3)n(-c3ccccc3)n2)cc1C [SMU29-551, 5-bromo-N-(3-((2-oxo-2-((1-phenyl-3-(2,4,5-trimethylphenyl)-1H-pyrazol-5-yl)amino)ethyl)thio)phenyl)nicotinamide]
DU145TXR; 5 μM inhibitor
  Fold vs PTX ÷ 29: 9.7 Fold
  Fold vs PTX: 106 Fold
DU145TXR; 7 μM inhibitor
  Fold vs PTX ÷ 29: 6.6 Fold
  Fold vs PTX: 236 Fold
DU145TXR; 10 μM inhibitor
  Fold vs PTX ÷ 29: 3.5 Fold
  Fold vs PTX: 353 Fold
[1]
  Stimulated ATPase (% of DMSO): 62 ± 5 % of DMSO
  Basal ATPase (% of DMSO): 150 ± 6 % of DMSO
[2]
  Maximum ATP binding mol SL-ANP bound/mol P-gp: 1.7 ± 0.1 mol SL-ANP bound/mol P-gp
[3]
  Basal ATPase (% of DMSO): 72 ± 9 % of DMSO
  Stimulated ATPase (% of DMSO): 27 ± 1 % of DMSO
[4]; after 6-hour pre-incubation
  Cellular calcein accumulation relative to parental compound 29: equivalent to 29
[4]; no preincubation
  Cellular calcein accumulation relative to parental compound 29: marginally higher calcein accumulation than parental compound 29

## Cc1cc(C)c(-c2cc(NC(=O)CSCC(=O)Nc3ccc4ncsc4c3)n(-c3ccccc3)n2)cc1C [SMU29-255]
[1]
  Stimulated ATPase (% of DMSO): 123 ± 15 % of DMSO
  Basal ATPase (% of DMSO): 355 ± 7 % of DMSO
P-gp
  Intracellular accumulation in the presence versus absence of TQR: more modest, but statistically significant increases
  Transport substrate for P-gp: very likely to be transport substrates
[2]
  Maximum ATP binding mol SL-ANP bound/mol P-gp: 1.9 ± 0.1 mol SL-ANP bound/mol P-gp
[3]
  Basal ATPase (% of DMSO): 84 ± 9 % of DMSO
  Stimulated ATPase (% of DMSO): 59 ± 6 % of DMSO
